Entries after “also recorded” stand apart in the source; their conditions may differ. One block for each compound: values may come before it.
Key:
TNFR1/TRADD = TNFR1/TRADD complex formation (TNFR1 immuno-precipitation, TRADD immuno-blot), PAR2 expressing cells; format: cell-based, human; settings: 100 nM YM254890 or 3 μM GF109203X 30 min, peptide 100 μM 30 min, TNFα 10 ng/ml 30 min
Method: (§1) Human skin epithelial cells NCTC2544 were maintained in M199 medium with Earl's salt supplement, 10% (v/v) foetal calf serum, L-glutamine (27 µg/ml), penicillin (250 U/ml), and streptomycin (25 mg/ml). NCTC2544 cells stably expressing human PAR2 (clone G) were maintained in complete M199 medium containing 400 μg/ml of Geneticin for selection pressure and passaged using Versene (2% EDTA/PBS). EAhy-926 cells were produced by hybridizing human umbilical vein endothelial cells (HUVECs) with the epithelial cell line A549 [27] and maintained in Dulbecco's Modified Eagle's Medium (DMEM) supplemented with 10% foetal calf serum (FCS), hypoxanthine/aminopterin/thymidine (HAT supplement), penicillin (250 U/ml) and streptomycin (25 mg/ml), and cells were passaged using Versene.
Proteins were separated by 10% SDS–PAGE and transferred onto nitrocellulose. The membranes were blocked for non-specific binding for 2 h in 2% BSA (w/v) diluted in NATT buffer (50 mM Tris–HCl, 150 mM NaCl, 0.2% (v/v) Tween-20). The blots were then incubated overnight with 50 ng/ml primary antibody diluted in 0.2% BSA (w/v) in NATT buffer. The blots were washed with NATT buffer for 90 min and incubated with HRP-conjugated secondary antibody (20 ng/ml in 0.2% BSA (w/v) diluted in NATT buffer) for 2 h. After a further 90 min wash, the blots were subjected to ECL reagent and exposed to Kodak X-ray film.
For immuno-precipitation of TNFR1, equal amounts of pre-cleared cell lysates were incubated in Tris–HCl buffer, pH 7.4, containing 50 mM NaCl, 1 mM EDTA, 1 mM EGTA, 1% (w/v) Triton X-100, and 0.5% (w/v) Nonidet P-40, with 2 μg TNFR1 antibody, pre-coupled to protein G, for 3 h. Lysates were recovered by sequential washes in solubilisation buffer and in the same buffer lacking detergents. Precipitates were assessed for TRADD or RIP content using Western blotting.
Fig. 7 PAR2 mediated TNFR1 adapter protein disruption in PAR2 expressing cells. In Panel A, cells were pre-treated with peptide (100 μM) or vehicle prior to stimulation with TNFα (10 ng/ml) for 30 min. Lysates were immuno-precipitated for TNFR1 and immuno-blotted for TRADD and/or RIP, as outlined in the Methods section. In Panel B cells were pre-treated with 100 nM YM254890 or 3 μM GF109203X for 30 min prior to pre-treatment with peptide (100 μM), for 30 min, then incubated for a further 30 min with TNFα (10 ng/ml). TNFR1 immuno-precipitates were immuno-blotted for TRADD. Each gel is representative of at least three experiments.

Gq/11 [1] = experiment: Reversal by Gq/11 inhibitor of PAR2 mediated inhibition of TNFα-stimulated JNK phosphorylation, PAR2 NCTC2544 cells; format: cell-based, human; settings: 100 nM YM254890 30 min, SLIGKV-OH 100 μM 30 min, TNFα 10 ng/ml 30 min
Method: as §1
Proteins were separated by 10% SDS–PAGE and transferred onto nitrocellulose. The membranes were blocked for non-specific binding for 2 h in 2% BSA (w/v) diluted in NATT buffer (50 mM Tris–HCl, 150 mM NaCl, 0.2% (v/v) Tween-20). The blots were then incubated overnight with 50 ng/ml primary antibody diluted in 0.2% BSA (w/v) in NATT buffer. […]
(§2) Fig. 6 Gq/11 is essential for PAR2 mediated inhibition of JNK activation by TNFα. […] Samples were assessed for phospho-JNK levels (Panels A and D) or JNK activity (Panel B) as outlined in the Methods section. Gels from JNK activity assays were quantified by densitometry (Panel C). […]

Gq/11 [2] = experiment: Reversal by Gq/11 inhibitor of PAR2 mediated inhibition of TNFα-stimulated JNK activity, PAR2 NCTC2544 cells; format: cell-based, human; settings: increasing concentrations YM254890 30 min, SLIGKV-OH 100 μM 30 min, TNFα 10 ng/ml 30 min
Method: as §1
To measure JNK activity, cells were stimulated as appropriate and the reaction terminated by rapid aspiration and the addition of ice-cold PBS. […] Phosphorylation of GST-c-Jun was then determined by autoradiography. […]
as §2

Gq/11 [3] = settings: ref [29]; cited from earlier work
Description: Thus, DAG derived from Gq/11 activation is likely to drive PKC activation and subsequent inhibition of TNFα stimulated JNK activity. Previously, we have shown that Gq/11 plays a positive role in the regulation of PAR2 mediated NFκB p ...

p38 MAP kinase = settings: higher concentrations, ref [37]; cited from earlier work
Description: Whilst this present study focuses on two agonist effects it is the first study to raise this potential when examining JNK activation. This model was also supported when examining the effect of the novel PAR2 antagonist K-14585 [33]. […] Taken together, these findings indicate two distinct agonist-directed signalling pathways driven by SLIGKV-OH, one dependent upon ...

human PAR2 [4] = target: T1, human PAR2 (Homo sapiens, UniProt P55085); experiment: JNK activity, agent alone, PAR2 NCTC2544 cells (clone G); format: cell-based; settings: higher concentrations, alone; not shown
T1 construct: expressed in transfected cells
T1 sequence (P55085 26-397): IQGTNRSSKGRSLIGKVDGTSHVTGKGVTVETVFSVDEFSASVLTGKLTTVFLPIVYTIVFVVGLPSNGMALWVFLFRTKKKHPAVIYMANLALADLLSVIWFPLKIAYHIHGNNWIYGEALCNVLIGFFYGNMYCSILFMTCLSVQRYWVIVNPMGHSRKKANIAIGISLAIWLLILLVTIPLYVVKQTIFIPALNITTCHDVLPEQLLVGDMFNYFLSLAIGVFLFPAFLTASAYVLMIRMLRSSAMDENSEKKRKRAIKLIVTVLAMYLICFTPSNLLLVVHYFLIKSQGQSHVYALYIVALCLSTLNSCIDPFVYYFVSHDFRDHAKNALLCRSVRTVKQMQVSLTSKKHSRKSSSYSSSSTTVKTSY
Method: as §1
To measure JNK activity, cells were stimulated as appropriate and the reaction terminated by rapid aspiration and the addition of ice-cold PBS. The cells were solubilised in 20 mM HEPES buffer, pH 7.7, containing 50 mM NaCl, 0.1 mM EDTA, 0.1 mM Na3VO4, 0.1 mM PMSF, 10 mg/ml aprotinin, 10 mg/ml leupeptin, and 1% (w/v) Triton X-100. Lysates were clarified by centrifugation for 5 min at 13,000 rpm and equal amounts of protein were incubated with 20 μg of GST-c-Jun-(5–89) immobilized on glutathione-Sepharose at 4 °C for 3 h. […] Phosphorylation of GST-c-Jun was then determined by autoradiography. […]
Fig. 4 Concentration response effects of PAR2 peptides for activation of JNK and inhibition of TNFα-stimulated JNK. PAR2 expressing NCTC2544 cells (clone G) were incubated with increasing concentrations of SLIGKV-OH or 2f-LIGKV-OH for 30 min and assayed for JNK activity (Panel B) or stimulated for a further 30 min with TNFα (+) before JNK activity was assessed (Panel A). Samples were assessed for JNK activity as outlined in the Methods section. Gels from JNK assays were quantified (Panel C). Each value represents the mean ± s.e.m from at least 4 experiments and data was quantified by densitometry.

human PAR2 [5] = target: T1, human PAR2; experiment: Reversal by PAR2 antagonist of SLIGKV-OH-mediated inhibition of TNFα-stimulated JNK, PAR2 NCTC2544 cells; format: cell-based; settings: 10 μM K14585 30 min, SLIGKV-OH 100 μM 30 min, then TNFα
Method: as §1
(§3) To measure JNK activity, cells were stimulated as appropriate and the reaction terminated by rapid aspiration and the addition of ice-cold PBS. The cells were solubilised in 20 mM HEPES buffer, pH 7.7, containing 50 mM NaCl, 0.1 mM EDTA, 0.1 mM Na3VO4, 0.1 mM PMSF, 10 mg/ml aprotinin, 10 mg/ml leupeptin, and 1% (w/v) Triton X-100. Lysates were clarified by centrifugation for 5 min at 13,000 rpm and equal amounts of protein were incubated with 20 μg of GST-c-Jun-(5–89) immobilized on glutathione-Sepharose at 4 °C for 3 h. Beads were then washed three times in solubilisation buffer and twice in 25 mM HEPES buffer, pH 7.6, containing 20 mM β-glycerophosphate, 0.1 mM NaV3O4, and 2 mM dithiothreitol. Precipitates were then incubated with the same buffer containing 25 μM/0.5 μCi of ATP/[γ-^32P] ATP in a final volume of 30 µl at 30 °C for 30 min. The reactions were terminated by the addition of 4× SDS-sample buffer and aliquots of each sample subjected to electrophoresis on 11% SDS-polyacrylamide gel electrophoresis. Phosphorylation of GST-c-Jun was then determined by autoradiography.
Fig. 3 Inhibition of TNFα-stimulated JNK activity is dependent upon PAR2 activation. […] Samples were assessed for JNK activity or phospho-JNK content as outlined in the Methods section. […]

PKC [6] = experiment: TNFα-stimulated JNK activity, PKC activator / PKC inhibitor, PAR2 NCTC2544 cells; format: cell-based, human; settings: 100 nM PMA 30 min, TNFα 10 ng/ml 30 min
Method: as §1, §3
Where experimental data is shown as a blot, this represents one of at least 3 experiments and data represents the mean ± s.e.m. Statistical analysis was by one-way ANOVA with Dunnett's post test (*P < 0.05, **P < 0.01).
Fig. 5 Pharmacological blockade of protein kinase C reverses PAR2 mediated inhibition of TNFα-stimulated JNK activation. PAR2 expressing NCTC2544 cells (clone G) were pre-incubated with increasing concentrations of GF109203X (GFX) for 30 min then incubated for a further 30 min with 100 nM PMA (Panel A) or 30 nM trypsin (Panel B) prior to stimulation for a further 30 min with TNFα(+) (10 ng/ml). Samples were assessed for JNK activity (Panels A and B) or phospho-JNK levels (Panel D) as outlined in the Methods section. Gels from JNK activity assays were quantified by densitometry (Panel C). Each value represents the mean ± s.e.m from at least 4 experiments. ⁎⁎P < 0.01 compared to TNFα and trypsin stimulated.

PKC [7] = experiment: TNFα-stimulated JNK phosphorylation, PKC activator / PKC inhibitor, PAR2 NCTC2544 cells; format: cell-based, human; settings: 100 nM PMA
Method: as §1
Proteins were separated by 10% SDS–PAGE and transferred onto nitrocellulose. The membranes were blocked for non-specific binding for 2 h in 2% BSA (w/v) diluted in NATT buffer (50 mM Tris–HCl, 150 mM NaCl, 0.2% (v/v) Tween-20). […]
Fig. 5 Pharmacological blockade of protein kinase C reverses PAR2 mediated inhibition of TNFα-stimulated JNK activation. […] Samples were assessed for JNK activity (Panels A and B) or phospho-JNK levels (Panel D) as outlined in the Methods section. Gels from JNK activity assays were quantified by densitometry (Panel C). […]

TNFR1 = settings: ref [42,50]; cited from earlier work
Description: Upon activation TNFR1 associates with a number of proteins including TRADD, RIP, TRAF2, MADD and FADD [46]. Formation of this complex at the membrane allows TNFα to mediate an array of different signalling events, such as induction of apoptosis through the FADD-caspase arm or activation of MAP kinase and NFκB signalling via TRAF2. For example, TRAF2 contains a conserved C-terminal region termed the TRAF domain, which interacts with TRADD and an N-terminal ring finge ...

Compound: YM254890
reversal of PAR2 mediated disruption of TNFR1/TRADD complex (TNFR1/TRADD): effectively reversed PAR2 mediated disruption
reversal of PAR2 mediated disruption of TNFR1/TRADD complex (TNFR1/TRADD; listed as YM25480): reversed
reversal of PAR2 mediated inhibition of JNK phosphorylation by Gq/11 inhibitor (Gq/11 [1]): almost complete abrogation of peptide mediated inhibition of TNFα stimulated JNK phosphorylation
reversal of PAR2 mediated inhibition of JNK activity by Gq/11 inhibitor (Gq/11 [2]): almost complete abrogation of peptide mediated inhibition; also recorded: complete reversal of PAR2 mediated JNK inhibition
reversal of PAR2 mediated inhibition of JNK activity by Gq/11 inhibitor (Gq/11 [2]; listed as YM25480): reversed PAR2 mediated inhibition
inhibition of trypsin and peptide mediated [^3H]IP accumulation (Gq/11 [3]): very effective inhibitor

JNK activation by K14585 alone (human PAR2 [4]): able to activate both JNK
reversal of SLIGKV-OH-mediated JNK inhibition (words) (human PAR2 [5]; listed as K14858): reversed
Compound: NCCCC[C@H](NC(=O)CNC(=O)Nc1ccc2c(c1)c(CN1CCCC1)cn2Cc1c(Cl)cccc1Cl)C(=O)N[C@@H](Cc1ccccc1)C(=O)NC(c1ccccc1)c1ccccc1 [K-14585]
p38 MAP kinase activation by K14585 alone (p38 MAP kinase): able to activate both JNK (not shown) and p38 MAP kinase
reversal of SLIGKV-OH-mediated JNK inhibition (words) (human PAR2 [5]): able to reverse the inhibition of JNK; also recorded: able to reverse PAR2 mediated inhibition of TNFα signalling
reversal of SLIGKV-OH-mediated JNK inhibition (words) (human PAR2 [5]; listed as K14585): inhibition was reversed by pre-incubation

Compound: CCCCCCCCCCCCCC(=O)O[C@@H]1[C@@H](C)[C@@]2(O)[C@@H](C=C(CO)C[C@]3(O)C(=O)C(C)=C[C@@H]23)[C@@H]2C(C)(C)[C@]12OC(C)=O [PMA]
effect of PKC activator on TNFα-stimulated JNK activity (PKC [6]): mimicked the inhibitory effect of SLIGKV-OH; also recorded: mimic the inhibitory effect of PAR2 activation; also recorded: abolishing both JNK activity and phosphorylation
effect of PKC activator on TNFα-stimulated JNK phosphorylation (PKC [7]): abolishing both JNK activity and phosphorylation
disruption of TNFR1 binding (TNFR1): disrupt TNFR1 binding
